In patent publication US4632922A, “Oxomorpholinyl dimer and rescue of anthracycline and mitomycin C damage” (The United States of America as represented by the …, priority 1985, dated 1986):

Test system: swine skin
Assay: Intradermal DHM3 alone (control injections), tolerance and histology in swine
Assay type: in vivo, miniature white swine
Procedure: In order to produce anthracycline induced tissue damage, clinical grade doxorubicin (DOX) hydrochloride was obtained as a representative anthracycline chemical from the Drug Synthesis Branch, Developmental Therapeutics Program, National Cancer Institute. Each vial contained 10 mg DOX hydrochloride and 50 mg lactose which was reconstituted with 5.0 ml sterile 0.9% NaCl solution to give a final drug concentration of 2.0 mg/ml. DHM3 solution was prepared by dissolving 10 mg in ice-cold water which had been purged with N2 gas for 5 minutes. Dissolution was facilitated by brief sonication to give a final concentration of 10 mg/ml. The solution was kept cold (≈4° C.) and protected from air and light.
Female weanling miniature white swine weighing approximately 12 kg were obtained from the Veterinary Resources Branch, National Institutes of Health. The development of this strain of swine has been described previously (Sachs, et al., Transplantation 22:559-567, 1976). Each animal was housed in a 6×4 ft metabolic cage and was fed standard NIH show chow, 1.5 lbs twice daily.
DOX HCl (2.0 mg/ml) was administered intradermally (i.d.) with a 25 gauge needle inserted approximately 4 to 5 mm into the skin. Following the injection of 0.5, 0.75 or 1.0 ml (1.0, 1.5, or 2.0 mg, respectively) DOX solution, the syringe was removed from the hub leaving the needle in place. After the indicated time interval, 1.0 ml (10 mg) DHM3 was injected through the same needle and the needle was then removed. Control sites received 1.0 ml sterile water instead of DHM3. The injection sites were along the mid-lateral aspect of each side of the swine and were 4-5 cm apart (6-8 injection sites per side). One animal was used for a dose experiment where DOX, 0.5 ml/site was injected along one side and 1.0 ml/site was injected along the contralateral side. Fifteen minutes later, DHM3 or water was injected into alternating sites as described above. A second animal received DOX, 0.75 ml/site along both sides. […]

## CC1(CO)COC(=O)C(C)(C2(C)NC(C)(CO)COC2=O)N1 (stereo not drawn) [DHM3, bi(3,5-dimethyl-5-hydroxymethyl-2-oxomorpholin-3-yl)]
  tissue injury (histology): did not cause any tissue injury except for mild upper dermis congestion
  tolerance of control i.d. injections: well tolerated
  ulcer formation: no ulcer formation occurred
